According to ChEMBL document CHEMBL1149623, “Identification of antibacterial and antiviral activities of novel fused 1,2,4-triazine esters” (2007):

Columns and labels:
[1] = Cytotoxicity against monkey GMK cells at 25 ug/mL after 24 hrs by MTT assay; assay type: functional, Chlorocebus aethiops
[2] = system: HEK293; assay: Cytotoxicity against human HEK293 cells at 10 ug/mL after 24 hrs by MTT assay; assay type: functional
[3] = system: HEK293; assay: Cytotoxicity against human HEK293 cells at 200 ug/mL after 96 hrs by MTT assay; assay type: functional
[4] = Cytotoxicity against monkey GMK cells at 100 ug/mL after 96 hrs by MTT assay; assay type: functional, Chlorocebus aethiops
[5] = Cytotoxicity against monkey GMK cells at 200 ug/mL after 96 hrs by MTT assay; assay type: functional, Chlorocebus aethiops
[6] = system: HEK293; assay: Cytotoxicity against human HEK293 cells at 25 ug/mL after 24 hrs by MTT assay; assay type: functional
[7] = Cytotoxicity against monkey GMK cells at 50 ug/mL after 96 hrs by MTT assay; assay type: functional, Chlorocebus aethiops
[8] = system: HEK293; assay: Cytotoxicity against human HEK293 cells at 2.5 ug/mL after 96 hrs by MTT assay; assay type: functional
[9] = Cytotoxicity against monkey GMK cells at 25 ug/mL after 72 hrs by MTT assay; assay type: functional, Chlorocebus aethiops
[10] = Cytotoxicity against monkey GMK cells at 100 ug/mL after 48 hrs by MTT assay; assay type: functional, Chlorocebus aethiops
[11] = system: HEK293; assay: Cytotoxicity against human HEK293 cells at 200 ug/mL after 120 hrs by MTT assay; assay type: functional
[12] = system: HEK293; assay: Cytotoxicity against human HEK293 cells at 2.5 ug/mL after 120 hrs by MTT assay; assay type: functional
[13] = system: Echovirus E9; assay: Antiviral activity against Human echovirus 9 in GMK cells assessed as virus titre at 200 ug/mL after 1 hr; assay type: functional
[14] = system: HEK293; assay: Cytotoxicity against human HEK293 cells at 10 ug/mL after 120 hrs by MTT assay; assay type: functional
[15] = Cytotoxicity against monkey GMK cells at 100 ug/mL after 72 hrs by MTT assay; assay type: functional, Chlorocebus aethiops
[16] = system: HEK293; assay: Cytotoxicity against human HEK293 cells at 100 ug/mL after 24 hrs by MTT assay; assay type: functional
[17] = system: HEK293; assay: Cytotoxicity against human HEK293 cells at 200 ug/mL after 48 hrs by MTT assay; assay type: functional
[18] = system: Human adenovirus 5; assay: Antiviral activity against Human adenovirus 5 in HEK293 cells assessed as virus titre at 200 ug/mL after 1 hr; assay type: functional
[19] = system: HEK293; assay: Cytotoxicity against human HEK293 cells at 10 ug/mL after 72 hrs by MTT assay; assay type: functional
[20] = Cytotoxicity against monkey GMK cells at 5 ug/mL after 24 hrs by MTT assay; assay type: functional, Chlorocebus aethiops
[21] = Cytotoxicity against monkey GMK cells at 10 ug/mL after 96 hrs by MTT assay; assay type: functional, Chlorocebus aethiops
[22] = Cytotoxicity against monkey GMK cells at 200 ug/mL after 24 hrs by MTT assay; assay type: functional, Chlorocebus aethiops
[23] = Cytotoxicity against monkey GMK cells at 200 ug/mL after 72 hrs by MTT assay; assay type: functional, Chlorocebus aethiops
[24] = system: HEK293; assay: Cytotoxicity against human HEK293 cells at 10 ug/mL after 96 hrs by MTT assay; assay type: functional
[25] = Cytotoxicity against monkey GMK cells at 2.5 ug/mL after 120 hrs by MTT assay; assay type: functional, Chlorocebus aethiops
[26] = system: HEK293; assay: Cytotoxicity against human HEK293 cells at 50 ug/mL after 72 hrs by MTT assay; assay type: functional
[27] = system: Echovirus E9; assay: Antiviral activity against Human echovirus 9 in GMK cells assessed as virus titre at 50 ug/mL after 1 hr; assay type: functional
[28] = system: HEK293; assay: Cytotoxicity against human HEK293 cells at 25 ug/mL after 72 hrs by MTT assay; assay type: functional
[29] = Cytotoxicity against monkey GMK cells at 10 ug/mL after 72 hrs by MTT assay; assay type: functional, Chlorocebus aethiops
[30] = system: HEK293; assay: Cytotoxicity against human HEK293 cells at 50 ug/mL after 48 hrs by MTT assay; assay type: functional
[31] = Cytotoxicity against monkey GMK cells at 10 ug/mL after 24 hrs by MTT assay; assay type: functional, Chlorocebus aethiops
[32] = Cytotoxicity against monkey GMK cells at 200 ug/mL after 48 hrs by MTT assay; assay type: functional, Chlorocebus aethiops
[33] = Cytotoxicity against monkey GMK cells at 50 ug/mL after 24 hrs by MTT assay; assay type: functional, Chlorocebus aethiops
[34] = Cytotoxicity against monkey GMK cells at 10 ug/mL after 120 hrs by MTT assay; assay type: functional, Chlorocebus aethiops
[35] = system: HEK293; assay: Cytotoxicity against human HEK293 cells at 25 ug/mL after 120 hrs by MTT assay; assay type: functional
[36] = system: HEK293; assay: Cytotoxicity against human HEK293 cells at 2.5 ug/mL after 24 hrs by MTT assay; assay type: functional
[37] = system: HEK293; assay: Cytotoxicity against human HEK293 cells at 100 ug/mL after 72 hrs by MTT assay; assay type: functional
[38] = Cytotoxicity against monkey GMK cells at 25 ug/mL after 96 hrs by MTT assay; assay type: functional, Chlorocebus aethiops
[39] = Cytotoxicity against monkey GMK cells at 5 ug/mL after 72 hrs by MTT assay; assay type: functional, Chlorocebus aethiops
[40] = Cytotoxicity against monkey GMK cells at 50 ug/mL after 72 hrs by MTT assay; assay type: functional, Chlorocebus aethiops
[41] = system: HEK293; assay: Cytotoxicity against human HEK293 cells at 2.5 ug/mL after 48 hrs by MTT assay; assay type: functional
[42] = system: HEK293; assay: Cytotoxicity against human HEK293 cells at 50 ug/mL after 120 hrs by MTT assay; assay type: functional
[43] = system: HEK293; assay: Cytotoxicity against human HEK293 cells at 25 ug/mL after 96 hrs by MTT assay; assay type: functional
[44] = system: HEK293; assay: Cytotoxicity against human HEK293 cells at 5 ug/mL after 96 hrs by MTT assay; assay type: functional
[45] = system: HEK293; assay: Cytotoxicity against human HEK293 cells at 50 ug/mL after 24 hrs by MTT assay; assay type: functional
[46] = Cytotoxicity against monkey GMK cells at 2.5 ug/mL after 24 hrs by MTT assay; assay type: functional, Chlorocebus aethiops
[47] = Cytotoxicity against monkey GMK cells at 2.5 ug/mL after 96 hrs by MTT assay; assay type: functional, Chlorocebus aethiops
[48] = Cytotoxicity against monkey GMK cells at 5 ug/mL after 48 hrs by MTT assay; assay type: functional, Chlorocebus aethiops
[49] = system: Human adenovirus 5; assay: Antiviral activity against Human adenovirus 5 in HEK293 cells assessed as virus titre at 100 ug/mL after 1 hr; assay type: functional
[50] = system: HEK293; assay: Cytotoxicity against human HEK293 cells at 10 ug/mL after 48 hrs by MTT assay; assay type: functional
[51] = system: Echovirus E9; assay: Antiviral activity against Human echovirus 9 in GMK cells assessed as virus titre at 100 ug/mL after 1 hr; assay type: functional
[52] = Cytotoxicity against monkey GMK cells at 2.5 ug/mL after 48 hrs by MTT assay; assay type: functional, Chlorocebus aethiops
[53] = system: Human adenovirus 5; assay: Antiviral activity against Human adenovirus 5 in HEK293 cells assessed as virus titre at 50 ug/mL after 1 hr; assay type: functional
[54] = Cytotoxicity against monkey GMK cells at 10 ug/mL after 48 hrs by MTT assay; assay type: functional, Chlorocebus aethiops
[55] = system: HEK293; assay: Cytotoxicity against human HEK293 cells at 5 ug/mL after 72 hrs by MTT assay; assay type: functional
[56] = system: HEK293; assay: Cytotoxicity against human HEK293 cells at 25 ug/mL after 48 hrs by MTT assay; assay type: functional
[57] = Cytotoxicity against monkey GMK cells at 100 ug/mL after 24 hrs by MTT assay; assay type: functional, Chlorocebus aethiops

COC(=O)CC1NN=C2N(CCN2c2cccc(Cl)c2)C1=O (configuration not stated)
Activity [1]: 100%
Activity [2]: 100%
Activity [3]: 35%
Activity [4]: 0%
Activity [5]: 0%
Activity [6]: 100%
Activity [7]: 90%
Activity [8]: 100%
Activity [9]: 95%
Activity [10]: 50%
Activity [11]: 30%
Activity [12]: 100%
TCID50 [13]: 3.33 mL⁻¹
Activity [14]: 100%
Activity [15]: 20%
Activity [16]: 98%
Activity [17]: 40%
TCID50 [18]: 3.23 mL⁻¹
Activity [19]: 100%
Activity [20]: 100%
Activity [21]: 100%
Activity [22]: 80%
Activity [23]: 20%
Activity [24]: 100%
Activity [25]: 100%
Activity [26]: 95%
TCID50 [27]: 3.33 mL⁻¹
Activity [28]: 98%
Activity [29]: 100%
Activity [30]: 95%
Activity [31]: 100%
Activity [32]: 10%
Activity [33]: 100%
Activity [34]: 100%
Activity [35]: 95%
Activity [36]: 100%
Activity [37]: 55%
Activity [38]: 95%
Activity [39]: 100%
Activity [40]: 95%
Activity [41]: 100%
Activity [42]: 90%
Activity [43]: 95%
Activity [44]: 100%
Activity [45]: 95%
Activity [46]: 100%
Activity [47]: 100%
Activity [48]: 100%
TCID50 [49]: 3.5 mL⁻¹
Activity [50]: 100%
TCID50 [51]: 3 mL⁻¹
Activity [52]: 100%
TCID50 [53]: 3.5 mL⁻¹
Activity [54]: 100%
Activity [55]: 100%
Activity [56]: 100%
Activity [57]: 80%
